The values that follow are results of earlier work, collected in patent publication US8759404B2, “Intravenous propofol emulsion compositions having preservative efficacy” (Bharat Serums & Vaccines Ltd., priority 2005, dated 2014).

Molecules are shown by their SMILES.

Series [1] has as its system rats.

With `CCCCCCCCCCCC(=O)OCC(O)CO` (stereo not shown) [Monolaurin, monoglyceryl ester of lauric acid], the LD50 entry in series [1] (administered orally) was “about 53,000 mg/kg body weight”. Also, the “solubility in aqueous media” value (aqueous media) is given as “insoluble”. Besides, the “solubility in fat solvents” value (chloroform, benzene, ethanol, or acetone) is recorded as “highly soluble”.
On to `CCCCCCCCCC(=O)O` [Capric acid, Decanoic acid], for which the “Oral LD50 in rats” value in series [1] (oral) is “more than 10,000 mg/kg”.
